Measured values from patent publication US8669380B2, “Dioxa-bicyclo[3.2.1]octane-2,3,4-triol derivatives” (Pfizer Inc., priority 2009, dated 2014).
“And” between values parts separate entries of the source, which are not always exact repeats. Identical values can stand only once. Like-named read-outs stand apart in the source and are kept apart here.

Experiments:
[1] = biological target: human SGLT2 (Homo sapiens (Human), UniProt P31639); test: SGLT2 functional assay: inhibition of AMG uptake in CHO-FlpIn cells stably expressing human SGLT2; format: cell-based; details: read-out: hSGLT2 IC50
Description: The SGLT2 functional assay was designed to detect the inhibition of methyl-alpha-D glucopyranoside (AMG—a non-metabolizable form of glucose) uptake via the SGLT2 transporter. The SGLT2 transporter recovers glucose from the proximal tubules of the kidney; its inhibition results in sugar wasted in the urine. The positive control compound, Phlorizin, is a known inhibitor of glucose uptake for SGLT2 and was used for comparing the high percent effect of SGLT2 inhibition of the test compounds.
CHO-FlpIn (Invitrogen, Carlsbad, Calif.) cells stably expressing human SGLT2 (pcDNA5/FRT) were plated in Iso-TC 96 well plates (Perkin Elmer, Waltham, Mass.) at a density of 100,000 cells/well in 100 microL of growth media (1:1 F-12/DMEM media (Gibco, Carlsbad, Calif.), 10% FBS (Sigma, St. Louis Mo.), 1× Pen/Strep (Gibco, Carlsbad, Calif.), 600 microg/mL Hygromycin (Invitrogen, Carlsbad, Calif.)). Prior to treating with test compound, confluent cells were serum starved for 2 hours at 37° C. in 1:1 F-12/DMEM media, replacing with fresh F-12/DMEM media after 1 hour. […] After incubation, cells were washed twice with ice cold wash buffer (uptake buffer containing 200 microM Phlorizin (Sigma), air dried and lysed in 30 microL of 200 mM NaOH and 1% SDS buffer on an orbital shaker. Microscint 40 (Perkin Elmer, Waltham, Mass.) was added to the lysed cells (giving a final volume of 200 microL) and mixed by orbital shaking for 30 minutes. Plates were stored in the dark overnight and quantitated in the 1540 Microbeta Trilux (Wallac, Waltham, Mass.) using a normalized protocol for ^14C detection. The percent effect of test compounds to inhibit AMG uptake was calculated using the following calculation: [% Effect=((ZPE−T)/(ZPE−HPE))×100%] where “ZPE” is the corrected counts per minute (CCPM) in control wells containing 0.5% DMSO, “T” is the CCPM in wells containing test compound at various concentrations of the standard curve, and “HPE” is the high percent effect referring to the CCPM in control wells containing 10 microM Phlorizin. The IC50 values were calculated using a dose response equation and are summarized for the compounds tested in Table 1. **For test compound 1, cells were pre-incubated with test compound 1 for 15 minutes prior to the addition of the appropriate amount of AMG (40 nCi AMG [U-^14C] (Perkin Elmer, Waltham, Mass.) in unlabelled AMG (Aldrich, St. Louis, Mo.)) per well yielding a final concentration of 200 microM AMG. […]

[2] = biological target: hSGLT1 (Homo sapiens (Human), UniProt P13866); test: hSGLT1 inhibition (Table 1); format: cell-based; details: individual runs (Run No.)
[3] = final concentration of 11.33 microM AMG, individual runs (Run No.)

Chain of human SGLT2 (P31639 whole entry): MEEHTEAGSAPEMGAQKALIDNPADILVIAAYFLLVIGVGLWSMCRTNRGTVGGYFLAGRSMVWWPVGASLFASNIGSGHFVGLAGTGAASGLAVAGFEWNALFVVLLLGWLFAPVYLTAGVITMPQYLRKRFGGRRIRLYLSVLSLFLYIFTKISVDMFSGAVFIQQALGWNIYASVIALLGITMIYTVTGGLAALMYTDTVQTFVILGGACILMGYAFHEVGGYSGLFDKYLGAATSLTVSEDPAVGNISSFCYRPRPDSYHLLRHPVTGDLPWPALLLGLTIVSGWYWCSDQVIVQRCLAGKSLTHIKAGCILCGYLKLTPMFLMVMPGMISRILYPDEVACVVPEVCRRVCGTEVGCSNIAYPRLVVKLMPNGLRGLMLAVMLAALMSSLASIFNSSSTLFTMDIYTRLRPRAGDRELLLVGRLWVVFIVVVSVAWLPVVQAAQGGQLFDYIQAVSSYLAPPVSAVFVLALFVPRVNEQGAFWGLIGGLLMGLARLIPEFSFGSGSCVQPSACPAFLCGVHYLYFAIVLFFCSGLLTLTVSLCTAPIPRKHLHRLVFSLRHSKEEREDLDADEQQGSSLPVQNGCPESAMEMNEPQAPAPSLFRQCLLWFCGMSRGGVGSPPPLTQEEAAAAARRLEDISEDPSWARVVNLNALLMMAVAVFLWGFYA
Chain of hSGLT1 (P13866 whole entry): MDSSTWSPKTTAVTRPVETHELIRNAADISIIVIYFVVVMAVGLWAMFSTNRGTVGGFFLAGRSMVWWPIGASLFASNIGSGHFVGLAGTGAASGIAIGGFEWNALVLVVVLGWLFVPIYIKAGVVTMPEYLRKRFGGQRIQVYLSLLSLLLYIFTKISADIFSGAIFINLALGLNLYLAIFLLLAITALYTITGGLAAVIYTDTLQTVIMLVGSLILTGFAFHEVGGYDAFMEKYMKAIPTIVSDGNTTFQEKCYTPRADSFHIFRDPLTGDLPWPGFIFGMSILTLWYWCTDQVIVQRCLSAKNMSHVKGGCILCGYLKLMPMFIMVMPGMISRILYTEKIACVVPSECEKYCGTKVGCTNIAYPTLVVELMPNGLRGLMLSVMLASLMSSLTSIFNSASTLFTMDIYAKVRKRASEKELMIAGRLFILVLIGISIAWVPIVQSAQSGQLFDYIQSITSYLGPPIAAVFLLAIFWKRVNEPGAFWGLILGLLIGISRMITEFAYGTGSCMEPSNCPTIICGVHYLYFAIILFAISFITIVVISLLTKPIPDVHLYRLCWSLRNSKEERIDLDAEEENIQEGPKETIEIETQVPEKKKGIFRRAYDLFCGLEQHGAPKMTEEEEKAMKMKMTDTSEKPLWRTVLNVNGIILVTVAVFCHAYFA

| IC50 ([1]; ** final concentration of 200 microM AMG) | IC50 [2] | IC50 [1, 3] | SMILES | melting point |
| --- | --- | --- | --- | --- |
| 2.6 nM | – | – | OC[C@@]12CO[C@@](c3ccc(Cl)c(Cc4ccc(O)cc4)c3)(O1)[C@H](O)[C@@H](O)[C@@H]2O [Example 1, (1S,2S,3S,4R,5S)-5-[4-chloro-3-(4-hydroxy-benzyl)-phenyl]-1-hydroxymethyl-6,8-dioxa-bicyclo[3.2.1]octane-2,3,4-triol] | – |
| – | 3470 nM and 5830 nM | – | CCOc1ccc(Cc2cc([C@]34OC[C@](COC(C)=O)(O3)[C@@H](O)[C@H](O)[C@H]4O)ccc2Cl)cc1 [Example 3, Acetic acid (1R,2S,3S,4R,5S)-5-[4-chloro-3-(4-ethoxy-benzyl)-phenyl]-2,3,4-trihydoxy-6,8-dioxa-bicyclo[3.2.1]oct-1-ylmethyl ester] | – |
| – | 3360 nM | 45.9 nM | CCOC(=O)OC[C@@]12CO[C@@](c3ccc(Cl)c(Cc4ccc(OCC)cc4)c3)(O1)[C@H](O)[C@@H](O)[C@@H]2O [Example 4, Carbonic acid (1R,2S,3S,4R,5S)-5-[4-chloro-3-(4-ethoxy-benzyl)-phenyl]-2,3,4-trihydroxy-6,8-dioxa-bicyclo[3.2.1]oct-1-ylmethyl ester ethyl ester] | – |
| – | 1970 nM and 1890 nM and 2000 nM | 4 nM (2×) and 3 nM | CCOc1ccc(Cc2cc([C@]34OC[C@](CF)(O3)[C@@H](O)[C@H](O)[C@H]4O)ccc2Cl)cc1 [Example 8, (1S,2S,3S,4R,5S)-5-[4-Chloro-3-(4-ethoxy-benzyl)-phenyl]-1-fluoromethyl-6,8-dioxa-bicyclo[3.2.1]octane-2,3,4-triol] | – |

| SMILES | IC50 ([1]; ** final concentration of 200 microM AMG) | IC50 [2] | IC50 [1, 3] | melting point |
| --- | --- | --- | --- | --- |
| CCOc1ccc(Cc2cc([C@]34OC[C@](COC(C)=O)(O3)[C@@H](OC(C)=O)[C@H](OC(C)=O)[C@H]4OC(C)=O)ccc2Cl)cc1 [Example 2, Acetic acid (1R,2S,3S,4R,5S)-3,4-diacetoxy-1-acetoxymethyl-5-[4-chloro-3-(4-ethoxy-benzyl)-phenyl]-6,8-dioxa-bicyclo[3.2.1]oct-2-yl ester] | – | 10000 nM | 1090 nM and 1770 nM | 134.3 °C |
